Laboratory results: EP2678315B1, “(Pyridin-4-yl)benzylamides as allosteric modulators of alpha 7 nAChR” (Janssen Pharmaceutica, N.V., priority 2011, dated 2012)
Where two headings read alike, the source gives them in different places.

Columns and labels:
[1] = biological target: T1, human alpha 7-wt nAChR (Homo sapiens, UniProt P36544); assay: Ca2+ flux imaging (FDSS) (protocol B); assay type: cell-based; conditions: for Emax: read-out: % Efficacy
T1 construct: expressed in transfected cells
Description: Example D.1 : Ca^2+ flux imaging (FDSS) (protocol B)
• a) Assay buffer Hanks buffered saline solution (HBSS, Invitrogen, Belgium), supplemented with 10 mM HEPES (Invitrogen, Belgium), CaCl2 to a final concentration of 5 mM, 0.1 % Bovine serum albumin (Sigma-Aldrich NV, Belgium). • b) Calcium-sensitive dye - Fluo-4AM Fluo-4AM (Molecular Probes, USA) was dissolved in DMSO containing 10% Pluronic acid (Molecular Probes, USA) to give a stock solution which was diluted in assay buffer supplemented with 5 mM probenicid (Sigma, Aldrich NV, Belgium) to give a final concentration of 2 µM • c) 384-well plates Black-sided, transparent bottomed 384 well plates coated with poly-D-lysine, PDL pre-coated (Coming, Incorporated, USA) • d) Calcium flux measurement A Functional drug screening system (FDSS, Hamamatsu) was used to measure intracellular free-calcium flux signals.
Monolayers of human alpha 7-wt nAChR-expressing cells were grown in black-sided, transparent bottomed 384 well plates coated with PDL for 24 hours prior to loading with a fluorescent calcium indicator, fluo-4AM for up to 120 minutes.
PAM activity was detected in real time by applying the compounds to be tested to the loaded cells along with an alpha 7 nicotinic receptor agonist during constant monitoring of cellular fluorescence in a FDSS. Compounds giving peak fluorescent responses greater than the response due to agonist alone, were consideted to be alpha 7 nAChR PAMs. The alpha 7 nicotinic receptor agonist was choline, applied at a sub-maximal concentration of 100 µM. In a further setting of the present invention the compounds were applied prior to the alpha 7 nicotinic receptor agonist, in a particular 10 minutes prior to the agonist.
A control response to choline was calculated on each plate from the difference in peak in fluorescence in wells receiving either choline or assay buffer alone. Compounds of the present invention were tested at a concentration range from 0.01 µM to 30 µM. Compounds were considered to have an interesting activity when they potentiated the choline signal at least with 200 % when tested at a concentration of 30 µM (the efficacy of 100 µM choline was defined as 100% in the absence of a PAM). An EC50 (or pEC50) was determined as a concentration relating to half the maximal effect, when a clear sigmoidal curve with top plateau was obtained.

[2] = biological target: T1, human alpha 7-wt nAChR; assay: Patch-clamp current recording (whole-cell voltage-clamp, GH4C1 cells); assay type: cell-based; set-up: key: Type 0 compounds minimally change the effect size of the current elicited by 1 mM choline.; Type 1 compounds enhance the effect size of the current elicited by 1 mM choline but minimally alter the kinetics of the receptor.; Type 2 compounds enhance the effect size of the current elicited by 1 mM choline while reducing the rate and/or the extent of desensitization.; Type 3 compounds enhance the effect size of the current elicited by 1 mM choline. When tested at higher concentrations up to 10 µM they completely inhibit desensitization; Type 4 compounds allow for an initial desensitization of the receptor followed by a re-opening of the receptor during agonist application; conditions: current elicited by 1 mM choline
Description: The compounds of the present invention are classified as type 1-4, based on qualitative kinetic properties, as determined by whole-cell voltage-clamp recordings. This classification is based on the effect of an alpha 7 PAM compound, as described hereinbefore, on the signal elicited by an agonist application. In particular, said agonist is choline at a concentration of 1mM. In a preferred experimental setting, said alpha 7 PAM compound and choline are simultaneously applied to the cell, as described hereinafter. Desensitization is defined as the closure of the receptor upon activation during the application of the agonist in whole-cell voltage-clamp electrophysiology measurements seen as the reduction of the […] current after initial activation by the agonist.
The definition of the PAM types 1-4 is described hereinafter: Type 0 compounds minimally change the effect size of the current elicited by 1 mM choline. Type 1 compounds enhance the effect size of the current elicited by 1 mM choline but minimally alter the kinetics of the receptor. In particular, the rate and the extent of desensitization and of deactivation of the receptor elicited by the agonist is not affected. The compound-modulated response to 1 mM choline, therefore, is close to a linear scaling of the 1 mM choline response in absence of the alpha 7 PAM compound: Type 2 compounds enhance the effect size of the current elicited by 1 mM choline while reducing the rate and/or the extent of desensitization. Deactivation of the receptor is generally unaffected. Type 3 compounds enhance the effect size of the current elicited by 1 mM choline. […] Deactivation of the receptor may be slowed down. Type 4 compounds allow for an initial desensitization of the receptor followed by a re-opening of the receptor during agonist application. At low-potency concentrations of the alpha 7 PAM compound, the agonist-induced activation, which is followed by desensitization, can still be separated from the compound-induced re-opening as an initial inward current-maximum. At higher potency concentrations of the alpha 7 PAM compound, the re-opening occurs faster than the closure due to desensitization so that the initial current-maximum disappears.
A compound was considered to have interesting PAM-like activity when the potentiation of the peak current was at least 200% compared to the control choline response (= 100%). Such compounds are classified as belonging to a particular PAM type in the Experimental Part. Compounds not meeting the condition are not classified as belonging to a particular PAM-type.
The compounds also have a potentiating effect on the response to choline when measured by whole-cell patch clamp electrophysiology in GH4C1 cells stably over-expressing the human wild-type alpha 7 receptor.
Example D.2 : Patch-clamp current recording
Patch-clamp recording from mammalian cells has provided a powerful means of assessing the function of membrane-bound proteins thought to be subunits of ligand-gated ion channels. Activation of such proteins by endogenous or exogenous ligands cause opening of a pore associated with the receptor through which ions flow down their electrochemical gradient. In the case of the human alpha 7-wt nAChR-expressing GH4C1 recombinant cell line the preferential permeability to calcium of this receptor means that calcium flows into the cell upon activation by ACh, choline and other nicotinic ligands giving rise to a calcium current. Since this receptor rapidly desensitizes in the presence of agonist it is important that an application system is used which is capable of very rapid switching of solutions (< 100 ms) to prevent partial or full desensitisation of receptor responses coincident with the time of agonist application. Consequently, a second convenient technique to assess the enhancement of nicotinic efficacy is a patch-clamp recording from human alpha 7-wt nAChR-expressing GH4C1 cells coupled with a rapid-application system. […]

[3] = Ca2+ assay as described in D.1, read-out: pEC50 (converted)

T1 sequence (P36544 23-502): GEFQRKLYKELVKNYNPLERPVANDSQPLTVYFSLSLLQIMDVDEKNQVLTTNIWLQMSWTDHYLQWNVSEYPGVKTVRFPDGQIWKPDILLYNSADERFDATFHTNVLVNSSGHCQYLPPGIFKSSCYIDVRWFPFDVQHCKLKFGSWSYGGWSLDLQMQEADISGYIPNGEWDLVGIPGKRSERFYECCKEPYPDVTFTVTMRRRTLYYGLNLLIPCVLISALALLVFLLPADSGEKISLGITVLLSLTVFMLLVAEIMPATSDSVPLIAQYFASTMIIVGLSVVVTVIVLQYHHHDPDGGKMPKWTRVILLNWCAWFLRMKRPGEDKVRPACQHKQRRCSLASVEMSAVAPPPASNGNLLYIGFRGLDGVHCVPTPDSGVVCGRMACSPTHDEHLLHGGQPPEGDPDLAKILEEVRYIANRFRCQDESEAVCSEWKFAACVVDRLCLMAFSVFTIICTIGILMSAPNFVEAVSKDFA

Emax ([1]; Ca2+ assay as described in D.1) [%] | Structure (SMILES) | EC50 [1, 3] [nM] | Emax [1] [%] | PAM type [2] | EC50 [1] [nM]
 | Cc1cc(-c2c(F)cc(N3CCOC(C)C3)cc2CNC(=O)CC2CC2)cc(C)n1 (centres unmarked) [Compound 114] | 158 | 415 | 3 | 
 | Cc1cc(-c2cc(F)c(N3C[C@@H](C)O[C@@H](C)C3)cc2CNC(=O)C(C)C)cc(C)n1 [Compound 128] | 295 | 329 | 2 | 
 | Cc1cc(-c2ccc(N3C[C@@H](C)O[C@@H](C)C3)c(CNC(=O)C(C)C)c2)cc(C)n1 [Compound 134] | 91.2 |  | 3 | 
 | Cc1cc(-c2c(F)cc(N3CCOC(C)C3)cc2CNC(=O)CC(C)C)cc(C)n1 (centres unmarked) [Compound 116] | 20.9 | 374 | 3 | 
 | Cc1cc(-c2c(F)cc(N3CCO[C@H](C(F)(F)F)C3)cc2CNC(=O)c2conc2C)cc(C)n1 [Compound 106] | 36.3 | 159 | 2 | 
 | Cc1cc(-c2c(Cl)cc(N3C[C@@H](C)O[C@@H](C)C3)cc2CNC(=O)CC2CC2)cc(C)n1 [Compound 119] | 28.8 | 624 | 2 | 
 | Cc1cc(-c2c(F)cc(N3CCOC(C)C3)cc2CNC(=O)C2CC2)cc(C)n1 (centres unmarked) [Compound 115] | 525 | 232 | 2 | 
 | Cc1cc(-c2c(F)cc(N3CCO[C@H](C(F)(F)F)C3)cc2CNC(=O)CC(C)C)cc(C)n1 [Compound 110] | 5.01 | 384 | 3 | 
 | Cc1cc(-c2ccc(N3C[C@@H](C)O[C@@H](C)C3)cc2CNC(=O)CC2CC2)cc(C)n1 [Compound 1, N-[[5-[(2R,6S)-2,6-dimethyl-4-morpholinyl]-2-(2,6-dimethyl-4-pyridinyl)phenyl]methyl]-cyclopropaneacetamide] | 40.7 |  | 3 | 
 | Cc1cc(-c2ccc(N3C[C@@H](C)O[C@@H](C)C3)cc2CNC(=O)c2cc(C)on2)cc(C)n1 [Compound 3] |  |  | 1 | 457
 | Cc1cc(-c2c(F)cc(N3C[C@@H](C)O[C@@H](C)C3)cc2CNC(=O)C2CC2)ccn1 [Compound 88] | 209 | 868 | 2 | 
817 | Cc1cc(-c2ccc(N3C[C@@H](C)O[C@@H](C)C3)cc2CNC(=O)C(C)C)cc(C)n1 [Compound 2, N-[[5-[(2R,6S)-2,6-dimethyl-4-morpholinyl]-2-(2,6-dimethyl-4-pyridinyl)phenyl]methyl]-2-methyl-propanamide] | 37.2 |  | 2 | 
 | Cc1cc(-c2c(F)cc(N3CCO[C@H](C(F)(F)F)C3)cc2CNC(=O)C(C)C)cc(C)n1 [Compound 107] | 30.9 | 266 | 2 | 
 | Cc1cc(-c2cc(F)c(N3C[C@@H](C)O[C@@H](C)C3)cc2CNC(=O)CC2CC2)cc(C)n1 [Compound 125] | 263 | 451 | 2 | 
 | Cc1cc(-c2c(F)cc(N3CCO[C@H](C(F)(F)F)C3)cc2CNC(=O)c2cc(C)on2)cc(C)n1 [Compound 111] | 331 | 550 | 1 | 
 | Cc1cc(-c2c(F)cc(N3CCO[C@H](C(F)(F)F)C3)cc2CNC(=O)CC2CC2)cc(C)n1 [Compound 108] | 18.6 | 432 | 2 | 
 | Cc1cc(-c2c(Cl)cc(N3C[C@@H](C)O[C@@H](C)C3)cc2CNC(=O)C(C)C)cc(C)n1 [Compound 121] | 38 | 435 | 2 | 
 | Cc1cc(-c2ccc(N3C[C@@H](C)O[C@@H](C)C3)c(CNC(=O)c3conc3C)c2)cc(C)n1 [Compound 136] | 129 |  | 3 | 
 | Cc1cc(-c2c(F)cc(N3CCO[C@H](C(F)(F)F)C3)cc2CNC(=O)C2CC2)cc(C)n1 [Compound 109] | 81.3 | 258 | 3 | 
 | Cc1cc(-c2c(F)cc(N3CCOC(C)C3)cc2CNC(=O)c2cc(C)on2)cc(C)n1 (centres unmarked) [Compound 112] | 1070 | 443 | 2 | 
